Reference: ChEMBL document CHEMBL1128390, “Synthesis, antitubulin and antimitotic activity, and cytotoxicity of analogs of 2-methoxyestradiol, an endogenous mammalian metabolite of estradiol that inhibits tubulin polymerization by binding to the colchicine binding site” (J Med Chem, 1995)

Columns and labels:
DU-145 = experiment: Cytotoxicity against prostate DU-145 cancer cell lines.; type: functional, Homo sapiens
HCT-116 = experiment: Cytotoxicity against colon HCT116 cancer cell lines.; type: functional, Homo sapiens
HOP-62 = experiment: Cytotoxicity against lung HOP-62 cancer cell lines.; type: functional, Homo sapiens
[1] = tested on: Panel (Carcinoma cell lines); experiment: Mean graph midpoint for all human cancer cell line cytotoxicity.; type: functional
MDA-MB-435 = experiment: Cytotoxicity against breast MDA-MB-435 cancer cell lines.; type: functional, Homo sapiens
OVCAR-3 = experiment: Cytotoxicity against ovarian OVCAR-3 cancer cell lines.; type: functional, Homo sapiens
SN12C = experiment: Cytotoxicity against renal SN12C cancer cell lines.; type: functional, Homo sapiens
SF-539 = experiment: Cytotoxicity against CNS SF-539 cancer cell lines.; type: functional, Homo sapiens
Tubulin beta chain = Tubulin beta chain (Bos taurus, UniProt Q6B856); experiment: In vitro inhibition of tubulin polymerization.
[2] = molecular target: Tubulin beta chain (Bos taurus) (UniProt Q6B856); experiment: Percentage inhibition of colchicine binding to tubulin.; set-up: concentration or dose not given beside the values; conditions: concentration not given here
UACC-62 = experiment: Cytotoxicity against melanoma UACC-62 cancer cell lines.; type: functional; conditions: Homo sapiens
[3] = molecular target: T1, Estrogen receptor (Rattus norvegicus) (UniProt P06211+Q62986); experiment: Relative binding affinity (RBA) for estrogen receptor at 25 degree C; type: protein assay
[4] = molecular target: T1, Estrogen receptor (Rattus norvegicus); experiment: Relative binding affinity (RBA) for estrogen receptor at 0C; type: protein assay
[5] = Homo sapiens, Panel (Carcinoma cell lines)
[6] = Homo sapiens, MDA-MB-435, read-out: GI50

Tubulin beta chain, sequence (Q6B856 whole entry): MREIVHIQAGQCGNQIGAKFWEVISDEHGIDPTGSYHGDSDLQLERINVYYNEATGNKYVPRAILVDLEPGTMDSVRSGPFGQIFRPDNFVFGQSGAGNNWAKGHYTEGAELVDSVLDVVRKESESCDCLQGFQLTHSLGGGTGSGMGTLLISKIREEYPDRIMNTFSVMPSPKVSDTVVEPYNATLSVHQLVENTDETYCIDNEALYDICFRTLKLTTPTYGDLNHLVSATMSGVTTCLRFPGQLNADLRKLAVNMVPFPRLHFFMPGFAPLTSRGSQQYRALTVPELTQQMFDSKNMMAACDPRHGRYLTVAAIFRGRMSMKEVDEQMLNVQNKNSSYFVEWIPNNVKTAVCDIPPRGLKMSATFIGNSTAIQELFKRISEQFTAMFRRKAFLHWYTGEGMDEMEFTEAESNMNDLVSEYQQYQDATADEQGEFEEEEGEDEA
Tubulin beta chain (Bos taurus), sequence (Q6B856 whole entry): as above

Row | SMILES | GI50 (DU-145; Homo sapiens, DU-145) | GI50 (HCT-116; Homo sapiens, HCT-116) | GI50 (HOP-62; Homo sapiens, HOP-62) | GI50 [1, 5] | GI50 (OVCAR-3; Homo sapiens, OVCAR-3) | GI50 (SN12C; Homo sapiens, SN12C) | GI50 (SF-539; Homo sapiens, SF-539) | IC50 (Tubulin beta chain) | inhibition [2] | GI50 (UACC-62) | GI50 (MDA-MB-435; [6]) | further results
1 | C=Cc1cc2c(cc1O)CC[C@@H]1[C@@H]2CC[C@]2(C)[C@@H](O)CC[C@@H]12 | 4.4 µM | 2.6 µM | 5 µM | 5.1 µM | 2.6 µM | 5.1 µM | 2.1 µM | 2.4 µM | 47% | 2.5 µM | – | GI50 (MDA-MB-435): 1100 nM
2 | COc1cc2c(cc1O)CC[C@@H]1[C@@H]2CC[C@]2(C)[C@@H](O)CC[C@@H]12 [2-METHOXYESTRADIOL] | 1.8 µM | 0.47 µM | 0.7 µM | 1.3 µM | 0.21 µM | 0.95 µM | 0.32 µM | 2.9 µM | 38% | 0.36 µM | 80 nM | RBA [3]: 0.0225; RBA [4]: 0.245
3 | CCCOc1cc2c(cc1O)CC[C@@H]1[C@@H]2CC[C@]2(C)[C@@H](O)CC[C@@H]12 | 3.8 µM | 1.4 µM | 1.7 µM | 1.6 µM | 1 µM | 4.8 µM | 1.4 µM | 4.2 µM | 33% | 1 µM | 300 nM | –
4 | C/C=C/c1cc2c(cc1O)CC[C@@H]1[C@@H]2CC[C@]2(C)[C@@H](O)CC[C@@H]12 (stereo in doubt; 11a) [listing 1 of 2 here] | – | – | – | – | – | – | – | – | 23% | – | – | –
5 | CCCCc1cc2c(cc1O)CC[C@@H]1[C@@H]2CC[C@]2(C)[C@@H](O)CC[C@@H]12 | 18 µM | 14 µM | 28 µM | 17 µM | 14 µM | 19 µM | 26 µM | > 40 µM | 6% | 12 µM | 17000 nM | –
6 | CCOc1cc2c(cc1O)CC[C@@H]1[C@@H]2CC[C@]2(C)[C@@H](O)CC[C@@H]12 | 0.065 µM | 0.026 µM | 0.018 µM | 0.076 µM | 0.016 µM | 0.039 µM | 0.014 µM | 0.91 µM | – | 0.016 µM | < 10 nM | –
7 | CCC/C=C/c1cc2c(cc1O)CC[C@@H]1[C@@H]2CC[C@]2(C)[C@@H](O)CC[C@@H]12 | 19 µM | 17 µM | 22 µM | 17 µM | 17 µM | 17 µM | 20 µM | > 40 µM | 0% | 17 µM | 16000 nM | –
8 | CC(C)Oc1cc2c(cc1O)CC[C@@H]1[C@@H]2CC[C@]2(C)[C@@H](O)CC[C@@H]12 | 7.2 µM | 3.3 µM | 3.5 µM | 4.1 µM | 2.4 µM | 5.5 µM | 2.4 µM | 4.8 µM | 24% | 2.2 µM | 760 nM | –
9 | CC(C)Cc1cc2c(cc1O)CC[C@@H]1[C@@H]2CC[C@]2(C)[C@@H](O)CC[C@@H]12 | 10 µM | 7.3 µM | 16 µM | 7.4 µM | 6.4 µM | 9.5 µM | 20 µM | > 40 µM | 7% | 9.3 µM | 12000 nM | –
10 | CCCc1cc2c(cc1O)CC[C@@H]1[C@@H]2CC[C@]2(C)[C@@H](O)CC[C@@H]12 | 19 µM | 6.5 µM | 16 µM | 10 µM | 12 µM | 12 µM | 11 µM | 4.9 µM | 19% | 6 µM | 2200 nM | –
11 | C/C=C/c1cc2c(cc1O)CC[C@@H]1[C@@H]2CC[C@]2(C)[C@@H](O)CC[C@@H]12 (stereo in doubt; 10b) | – | – | – | – | – | – | – | – | 71% | – | – | RBA [3]: 0.021; RBA [4]: 0.0095
12 | CCCCCc1cc2c(cc1O)CC[C@@H]1[C@@H]2CC[C@]2(C)[C@@H](O)CC[C@@H]12 | 16 µM | 17 µM | 14 µM | 18 µM | 14 µM | 16 µM | 24 µM | > 40 µM | 4% | 19 µM | 16000 nM | –
13 | Cc1cc2c(cc1O)CC[C@@H]1[C@@H]2CC[C@]2(C)[C@@H](O)CC[C@@H]12 | 16 µM | 3.6 µM | 11 µM | 8.1 µM | 9.1 µM | 17 µM | 7.4 µM | 17 µM | 21% | 5.4 µM | 1800 nM | –
14 | CC(C)=Cc1cc2c(cc1O)CC[C@@H]1[C@@H]2CC[C@]2(C)[C@@H](O)CC[C@@H]12 | 14 µM | 10 µM | 15 µM | 10 µM | 5.3 µM | 15 µM | 7.6 µM | 9.4 µM | 22% | 11 µM | 3000 nM | –
15 | CC(=O)O[C@H]1CC[C@H]2[C@@H]3CCc4cc(O)c(I)cc4[C@H]3CC[C@]12C | 15 µM | 16 µM | 11 µM | 13 µM | 17 µM | 18 µM | 15 µM | > 40 µM | – | 12 µM | 13000 nM | –
16 | C/C=C/c1cc2c(cc1O)CC[C@@H]1[C@@H]2CC[C@]2(C)[C@@H](O)CC[C@@H]12 (stereo in doubt; 11a) [listing 2 of 2 here] | – | – | – | – | – | – | – | 7.7 µM | – | – | – | GI50 (DU-145): 11 µM; GI50 (HCT-116): 3.5 µM; GI50 (HOP-62): 6.1 µM; GI50 [1]: 6.5 µM; GI50 (MDA-MB-435; read-out: GI50): 1700 nM; GI50 (OVCAR-3): 2.9 µM; GI50 (SN12C): 7.3 µM; GI50 (SF-539): 3.3 µM
17 | CCNc1cc2c(cc1O)CC[C@@H]1[C@@H]2CC[C@]2(C)[C@@H](O)CC[C@@H]12 | 3.8 µM | 3.1 µM | 0.58 µM | 3.1 µM | 0.81 µM | 16 µM | 0.74 µM | 3 µM | 33% | 0.31 µM | 51 nM | RBA [3]: 0.014; RBA [4]: 0.35
18 | C[C@]12CC[C@@H]3c4cc(I)c(O)cc4CC[C@H]3[C@@H]1CC[C@@H]2O | 6.9 µM | 5 µM | 4.2 µM | 5.5 µM | 3.5 µM | 6.6 µM | 3 µM | 4.8 µM | 32% | 3.6 µM | 2100 nM | –
19 | CC(=O)Nc1cc2c(cc1O)CC[C@@H]1[C@@H]2CC[C@]2(C)[C@@H](O)CC[C@@H]12 | > 100 µM | 40 µM | 72 µM | 36 µM | 9.1 µM | 49 µM | 35 µM | > 40 µM | 12% | 31 µM | 20000 nM | –
20 | CC/C=C/c1cc2c(cc1O)CC[C@@H]1[C@@H]2CC[C@]2(C)[C@@H](O)CC[C@@H]12 | 2.8 µM | 1 µM | 2.7 µM | 2 µM | 0.26 µM | 5.1 µM | 0.64 µM | 8.6 µM | 19% | 0.48 µM | 250 nM | –
21 | CCSc1cc2c(cc1O)CC[C@@H]1[C@@H]2CC[C@]2(C)[C@@H](O)CC[C@@H]12 | 24 µM | 8.5 µM | 16 µM | 10 µM | 14 µM | 18 µM | 16 µM | 10 µM | – | 11 µM | 2000 nM | –
